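The compound was tested at five concentrations on cells cultured in 96-well plates, with a 48-hour exposure period. The concentration for 50% growth inhibition is given as GI50. TGI: total growth inhibition.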
Tests used:
Test in all cases: NCI-60 cell line screen, 48 h
HCC-2998 colon = system: HCC-2998 colon
SNB-19 CNS = system: SNB-19 CNS
HT29 colon = system: HT29 colon
M14 melanoma = system: M14 melanoma
RXF 393 renal = system: RXF 393 renal
786-0 renal = system: 786-0 renal
HL-60(TB) leukemia = system: HL-60(TB) leukemia
HCT-116 colon = system: HCT-116 colon
SF-268 CNS = system: SF-268 CNS
KM12 colon = system: KM12 colon

SMILES: CCOC(=O)/C(C1=CC(=O)C(=O)c2ccccc21)=C(/C)NCc1ccccc1
- GI50 (HCC-2998 colon): 2.85 µM
- TGI (HCC-2998 colon): 8.2 µM
- GI50 (SNB-19 CNS): 3.24 µM
- TGI (SNB-19 CNS): > 100 µM
- GI50 (HT29 colon): 4360 nM
- TGI (HT29 colon): > 100 µM
- GI50 (M14 melanoma): 1710 nM
- TGI (M14 melanoma): 3.17 µM
- GI50 (RXF 393 renal): 186 nM
- TGI (RXF 393 renal): 1.73 µM
- GI50 (786-0 renal): 1290 nM
- TGI (786-0 renal): 2.88 µM
- GI50 (HL-60(TB) leukemia): 453 nM
- TGI (HL-60(TB) leukemia): 2.25 µM
- GI50 (HCT-116 colon): 1520 nM
- TGI (HCT-116 colon): 2.85 µM
- GI50 (SF-268 CNS): 1640 nM
- TGI (SF-268 CNS): 3.43 µM

SMILES: OCCCNCc1ccccn1
- TGI (SNB-19 CNS): > 100 µM
- TGI (HT29 colon): > 100 µM
- TGI (M14 melanoma): > 100 µM
- TGI (RXF 393 renal): > 100 µM
- TGI (786-0 renal): > 100 µM
- TGI (KM12 colon): > 100 µM
- TGI (HL-60(TB) leukemia): > 100 µM
- TGI (HCT-116 colon): > 100 µM
- TGI (SF-268 CNS): > 100 µM

SMILES: COC(=O)/C(=N/NC(C)(C)C)C(C(=O)C=C(C)C)C(=O)C(=O)Nc1ccc(Cl)cc1C (configuration not stated)
- TGI (HCC-2998 colon): > 100 µM
- TGI (SNB-19 CNS): > 100 µM
- TGI (HT29 colon): > 100 µM
- TGI (M14 melanoma): > 100 µM
- TGI (786-0 renal): > 100 µM
- TGI (KM12 colon): > 100 µM
- TGI (HL-60(TB) leukemia): > 100 µM
- TGI (HCT-116 colon): > 100 µM
- TGI (SF-268 CNS): > 100 µM

SMILES: CC1=C2N3C[C@@H](n4c(=O)n(C)c(=O)n43)C23CCC1n1c(=O)n(C)c(=O)n13
- TGI (HCC-2998 colon): > 100 µM
- TGI (SNB-19 CNS): > 100 µM
- TGI (HT29 colon): > 100 µM
- TGI (M14 melanoma): > 100 µM
- TGI (786-0 renal): > 100 µM
- TGI (KM12 colon): > 100 µM
- TGI (HL-60(TB) leukemia): > 100 µM
- TGI (SF-268 CNS): > 100 µM

SMILES: COc1ccc(/C=[N+](\[O-])[C@H](COCc2ccccc2)c2ccccc2)cc1
- TGI (HCC-2998 colon): > 100 µM
- TGI (SNB-19 CNS): > 100 µM
- TGI (HT29 colon): > 100 µM
- TGI (RXF 393 renal): > 100 µM
- TGI (786-0 renal): > 100 µM
- TGI (KM12 colon): > 100 µM
- TGI (HL-60(TB) leukemia): 77.2 µM
- TGI (HCT-116 colon): > 100 µM
- TGI (SF-268 CNS): > 100 µM

SMILES: Cn1c(=O)c2c(nc3n2CCC(=O)N3)n(C)c1=O
- TGI (SNB-19 CNS): > 100 µM
- TGI (HT29 colon): > 100 µM
- TGI (RXF 393 renal): > 100 µM
- TGI (786-0 renal): > 100 µM
- TGI (KM12 colon): > 100 µM
- TGI (HL-60(TB) leukemia): > 100 µM
- TGI (SF-268 CNS): > 100 µM

SMILES: Cc1ccc(C)c(NC(=O)/C(=N\NC(N)=S)C(C#N)c2ccccc2)c1 (configuration not stated)
- TGI (HCC-2998 colon): > 100 µM
- TGI (SNB-19 CNS): > 100 µM
- TGI (HT29 colon): > 100 µM
- TGI (M14 melanoma): > 100 µM
- TGI (786-0 renal): > 100 µM
- TGI (KM12 colon): > 100 µM
- TGI (HL-60(TB) leukemia): > 100 µM
- TGI (HCT-116 colon): > 100 µM
- TGI (SF-268 CNS): > 100 µM

SMILES: NC(N)=N/N=C/c1c(-c2cc(Cl)sc2Cl)nc2n1CCS2
- GI50 (HCC-2998 colon): 5.11 µM
- TGI (HCC-2998 colon): 12.6 µM
- GI50 (M14 melanoma): 6930 nM
- TGI (M14 melanoma): 14.3 µM
- GI50 (RXF 393 renal): 10800 nM
- TGI (RXF 393 renal): 22.4 µM
- GI50 (786-0 renal): 8120 nM
- TGI (786-0 renal): 15.6 µM
- GI50 (KM12 colon): 8.33 µM
- TGI (KM12 colon): 16.1 µM
- GI50 (SF-268 CNS): 11300 nM
- TGI (SF-268 CNS): 23.5 µM

SMILES: C=CCN(N=O)C(=O)N(CCC)CCCC(NC(C)=O)C(=O)NCc1ccccc1 (configuration not stated)
- TGI (SNB-19 CNS): > 100 µM
- TGI (HT29 colon): > 100 µM
- TGI (M14 melanoma): > 100 µM
- TGI (RXF 393 renal): > 100 µM
- TGI (786-0 renal): > 100 µM
- TGI (KM12 colon): > 100 µM
- TGI (HL-60(TB) leukemia): > 100 µM
- TGI (SF-268 CNS): > 100 µM

SMILES: C=C1C(=O)O[C@H]2[C@H]1CC/C(COC(=O)c1ccc(C(=O)O)s1)=C\CC[C@@]1(C)O[C@@H]21
- GI50 (HCC-2998 colon): 3.47 µM
- TGI (HCC-2998 colon): 11.5 µM
- GI50 (SNB-19 CNS): 3.17 µM
- TGI (SNB-19 CNS): 11.6 µM
- GI50 (HT29 colon): 1560 nM
- TGI (HT29 colon): 3.5 µM
- GI50 (M14 melanoma): 1520 nM
- TGI (M14 melanoma): 3.43 µM
- GI50 (RXF 393 renal): 1970 nM
- TGI (RXF 393 renal): 3.92 µM
- GI50 (786-0 renal): 1540 nM
- TGI (786-0 renal): 3.09 µM
- GI50 (KM12 colon): 2.82 µM
- TGI (KM12 colon): 8.46 µM
- GI50 (HCT-116 colon): 715 nM
- TGI (HCT-116 colon): 2.03 µM
- GI50 (SF-268 CNS): 2080 nM
- TGI (SF-268 CNS): 4.69 µM

From PubChem BioAssay (NCI)
